Source: patent US12678428B2, “Synergistic composition for inhibiting vascular calcification” (Celagenex Research (India) Pvt. Ltd., priority 2021, dated 2026)

Experiments:
[1] = system: Human Keratinocytes cell line (HaCaT); assay: Cytoprotective activity against AGE (methylglyoxal) induced oxidative stress, tryphan blue dye exclusion assay; assay type: cell-based; settings: HaCaT cells treated with Methylglyoxal and test substance, 24 h; Metformin 5 mg; Test I 3.5 mg; Test II 0.5 mg; Test III 5 mg + 0.02 mg; Test IV 0.2 mg + 0.2 mg; Test V 3.5 mg + 0.5 mg
Experimental: (§1) The purpose of this study is to evaluate cytoprotective activity of test substance against advanced glycation end product (AGE) induced oxidative stress in Human Keratinocytes cell line (HaCaT). About 10 mg of the test substance was dissolved separately with 1 mL DMEM-HG supplemented with 2% inactivated FBS to obtain a stock solution of 10 mg/mL concentration and sterilized by 0.22μ syringe filtration. Dilute the stock to desired concentrations for carrying out further studies. HaCaT (Human Keratinocytes cells) was procured from AddexBio, U.S. Stock cells were cultured in DMEM-HG supplemented with 10% inactivated Fetal Bovine Serum (FBS), penicillin (100 IU/mL), streptomycin (100 μg/mL) and amphotericin B (5 μg/mL) in humidified atmosphere of 5% CO2 at 37° C. until confluent. The cells were dissociated with TPVG solution (0.2% trypsin, 0.02% EDTA, 0.05% glucose in PBS). The stock cultures were grown in 25 cm^2 culture flasks and all experiments were carried out in 96 microtitre plates (Tarsons India Pvt. Ltd., Kolkata, India). [table] The monolayer cell culture was trypsinized and the cell count was adjusted to 1.5×10^5 cells/mL using DMEM-HG containing 10% FBS. To each well of the 6 well plates, 2 mL of the diluted cell suspension was added. After 24 hours, when a partial monolayer was formed, supernatant was removed and washed the monolayer once with PBS and 1 mL of different test concentrations and combinations of test substances were added. The plate was then incubated at 37° C. for 24 h in a 5% CO2 atmosphere, and microscopic examination was carried out and observations were noted after 24 hours time. After 24 hours, the media was discarded and cells were trypsinized and pelleted by centrifugation, suspended in 1 mL of fresh media and performed dye exclusion test, i.e., mixed equal volume of cells suspended media and Tryphan blue. Viable and non-viable cells were counted using haemocytometer and values were recorded, and then percentage cell viability was calculated.

[2] = as above; assay type: cell-based, Human; settings: human, HaCaT keratinocyte cells, HaCaT cells treated only with Methylglyoxal 300 μM (positive control)
Experimental: as §1

[3] = In vitro cytotoxicity by MTT assay in HaCaT cells; assay type: cell-based; settings: human, HaCaT keratinocyte cells
Experimental: The in vitro cytotoxicity was performed on Human Keratinocytes (HaCaT) cell line to find the non-toxic concentrations of the test substances by MTT assay and evaluate their cytoprotective activity against advanced glycation end product (AGE) induced oxidative stress in Human Keratinocytes.
About 10 mg of the test substance was dissolved separately with 1 mL DMEM-HG supplemented with 2% inactivated FBS to obtain a stock solution of 10 mg/mL concentration and sterilized by 0.22μ syringe filtration. Dilute the stock to desired concentrations for carrying out further studies.
HaCaT (Human Keratinocytes cells) was procured from AddexBio, U.S. Stock cells were cultured in DMEM-HG supplemented with 10% inactivated Fetal Bovine Serum (FBS), penicillin (100 IU/mL), streptomycin (100 μg/mL) and amphotericin B (5 μg/mL) in humidified atmosphere of 5% CO2 at 37° C. until confluent. The cells were dissociated with TPVG solution (0.2% trypsin, 0.02% EDTA, 0.05% glucose in PBS). The stock cultures were grown in 25 cm^2 culture flasks and all experiments were carried out in 96 microtitre plates (Tarsons India Pvt. Ltd., Kolkata, India).
The cell culture monolayer was trypsinized and the cell count was adjusted to 1.0×10^5 cells/mL using DMEM-HG containing 10% FBS. To each well of the 96 well microtitre plate, 0.1 mL of the diluted cell suspension was added. After 24 hours, when a partial monolayer was formed, the supernatant was flicked off, the monolayer was washed once with PBS and 100 μL of different concentrations of test substance was added. The plate was then incubated at 37° C. for 24 hours in a 5% CO2 atmosphere, and microscopic examination was carried out and observations were noted after 24 h time.
After 24 hours of incubation, the drug solution in the wells was discarded and 50 μL of MTT in DPBS was added to each well. The plate was gently shaken and incubated for 3 hours at 37° C. in a 5% CO2 atmosphere. The supernatant was removed and 100 μL of DMSO was added and the plate was gently shaken to solubilize the formed formazan. The absorbance was measured using a micro plate reader at a wavelength of 570 nm. The percentage growth inhibition was calculated using the standard formula. The concentration of test substance, needed to inhibit the growth of the cell by 50% i.e., CTC50 values were generated from the dose-response curves.

CC(=O)NCCS(=O)(=O)O.[Mg] [Test I, Magnesium 2-acetylamino ethane sulfonic acid]
% Viability [1]: 42.39%

CN(C)C(=N)N=C(N)N [Metformin, reference compound]
% Viability [1]: 70.79%

CC(=O)C=O [Methylglyoxal, reference compound]
viability at 24 h, 300 μM [2]: ~38.8%

Cc1ncc(CO)c(CN)c1O [2-methyl-4-aminomethyl-5-hydroxymethyl-3-Pyridinol]
cytotoxicity at 24 h, 0.125 mg/mL ([3]; test concentration 0.125 mg/mL): 4.55%
cytotoxicity at 24 h, 0.25 mg/mL ([3]; test concentration 0.25 mg/mL): 5.68%
cytotoxicity at 24 h, 0.5 mg/mL ([3]; test concentration 0.5 mg/mL): 25.6%
cytotoxicity at 24 h, 1 mg/mL ([3]; test concentration 1 mg/mL): 63.4%
cytotoxicity at 24 h, 2 mg/mL ([3]; test concentration 2 mg/mL): 67%
cytotoxicity at 24 h, 3 mg/mL ([3]; test concentration 3 mg/mL): 67.5%
cytotoxicity at 24 h, 4 mg/mL ([3]; test concentration 4 mg/mL): 75.8%
cytotoxicity at 24 h, 5 mg/mL ([3]; test concentration 5 mg/mL): 76%
% Viability [1]: 41.23%
